Measurements as given in US7598421B2, “Materials for the delivery of biologically-active material to cells” (UCL Biomedica PLC, priority 2002, dated 2009).

How the values were obtained:
integrins = settings: cited from earlier work; for affinity and specificity for integrins: literature
[1] = tested on: Human airway epithelial cells; experiment: Transfection efficiency, luciferase assay in HAE cells (Example 19); format: cell-based; set-up: scale not given here; settings: peptide:DNA 4:1, peptide [K]16 GACRRETAWACG
Protocol: The activity of various compositions of the invention was measured in HAE cells using a Luciferase assay. RLU/mg refers to relative light units per mg of protein. The assay was carried out as follows:
Lipid (10 mg/mL; […] [1 mg of lipid]) in chloroform was placed into a glass vial (sterile). The solvents were removed in vacuo and further traces of chloroform were removed on the high vacuum for 24 h. Cationic lipids were either formulated alone or with DOPE (mole ratio, 1:1).
Deionized water (1 mL; MilliQ) was added to the film, to generate […] solution of lipid in water. The mixture was allowed to hydrate at 4° C. for 24 h. After warming to 40° C. the mixture was sonicated to generate a clear solution (5 in approx). The resulting liposome formulations were stable for up to 3 months.
The components of the complex were mixed in the required weight ratio. The lipid was initially mixed with the peptide and the resulting mixture was added to the plasmid DNA.
Human airway epithelial cells were seeded for 24 h at 37 °C in complete growth medium in a […]. Transfection complexes were left to aggregate for 30 min and diluted to a concentration of 1 μg of DNA per 0.5 ml in OptiMEM (Life technologies). The medium was removed from each well and replaced with 0.5 ml of transfection complex and was allow to incubate for a further 4 h. The transfection complexes were removed and then replace with growth medium and the cells were allowed to incubate for 48 h.
The transfected cells were washed with phosphate-buffered saline (PBS). Reporter lysis buffer (100 μl) (Promega) was added to each well and cooled to 4 °C for 15 min. The cells were then assayed with a luciferase assay kit. The total light emission was measured for each well for 60 sec. The protein concentration of each sample was determined using a protein assay reagent and the activity expressed as relative light units per milligram of protein (RLU/mg).
The values obtained for the lipids produced in Examples 17 and 18 above and for Lipofectin were measured at 1:1 and 2:1 ratios of lipid:DNA, and in each case the ratio of peptide:DNA was 4:1, the peptide used being [K]16 GACRRETAWACG. The ratios are expressed in terms of weight. The testing procedure used was that outlined in Human Gene Therapy 9, 575-585, 1998.

| Compound | affinity and specificity for integrins (integrins) | integrin specificity (integrins; table of peptides) | luciferase activity, relative light units per mg of protein ([1]; 1:1 lipid:DNA by weight) [RLU/mg] | luciferase activity, relative light units per mg of protein ([1]; 2:1 lipid:DNA by weight) [RLU/mg] |
| --- | --- | --- | --- | --- |
| GACDCRGDCFCA [Peptide 5] | high affinity for integrin v but is not v-specific | Peptide 5 (αv) |  |  |
| GACRRETAWACG [Peptide 6] | 51-specific |  |  |  |
| CCCCCCCC/C=C\CCCCCCCCOC(C[N+](C)(C)C)C(C[N+](C)(C)C)OCCCCCCCC/C=C\CCCCCCCC (centres unmarked) [Example 18, 1,4-Di(trimethylammonium)-2,3-dioleyloxy-butane; diiodide] |  |  | 43.2 | 373.3 |
| GACRGDMFGCA [Peptide 1] | affinity for 5 and av integrins but is non-specific |  |  |  |
| CCCCCCCC/C=C\CCCCCCCC(=O)OC(C[N+](C)(C)C)C(C[N+](C)(C)C)OC(=O)CCCCCCC/C=C\CCCCCCCC.[I-].[I-] (centres unmarked) [Example 17, 1,4-Di(trimethylammonium)-2,3-dioleoyloxy-butane; diiodide] |  |  | 1.2 | 2.0 |
